These results are taken from publication PMC5218480 (PLoS ONE, 2017).

This assay relates to MV-4-11 cells. The assay can be described thus: Gene expression microarray analysis (Affymetrix PrimeView) and GSEA. As to conditions: ProbeSet 11720154_at; LIST B. The arrangement: RFU PODN (11730768_x_at) / Fold change /veh PODN (11730768_x_at) / RFU LINC00158 (11744669_a_at) / Fold change /veh LINC00158 (11744669_a_at) / RFU DUSP10 (11751237_a_at) / Fold change /veh DUSP10 (11751237_a_at) / RFU ID3 (11757404_x_at) / Fold change /veh ID3 (11757404_x_at) / RFU PLEKHG5 (11737974_s_at) / Fold change /veh PLEKHG5 (11737974_s_at) / RFU LRRC4B (11730491_at) / Fold change /veh LRRC4B (11730491_at) / RFU GIMAP4 (11747438_a_at) / Fold change /veh GIMAP4 (11747438_a_at) / RFU KRT8 (11758183_x_at) / Fold change /veh KRT8 (11758183_x_at) / RFU CNN1 (11734310_a_at) / Fold change /veh CNN1 (11734310_a_at) / RFU VPS37D (11726825_at) / Fold change /veh VPS37D (11726825_at) / RFU C10orf10 (11716522_x_at) / Fold change /veh C10orf10 (11716522_x_at) / RFU KIR2DL2 /// KIR2DL4 /// KIR2DL5A /// KIR2DL5B /// KIR2DS1 /// KIR2DS2 /// KIR2DS3 /// KIR2DS4 /// KIR3DL3 /// KIR3DL3 /// KIR3DS1 (11738374_at) / Fold change /veh KIR2DL2 /// KIR2DL4 /// KIR2DL5A /// KIR2DL5B /// KIR2DS1 /// KIR2DS2 /// KIR2DS3 /// KIR2DS4 /// KIR3DL3 /// KIR3DL3 /// KIR3DS1 (11738374_at) / RFU C1QL1 (11718748_at) / Fold change /veh C1QL1 (11718748_at) / RFU TMPRSS4 (11747572_a_at) / Fold change /veh TMPRSS4 (11747572_a_at) / RFU HAMP (11756126_x_at) / Fold change /veh HAMP (11756126_x_at) / RFU RNFT2 (11725882_a_at) / Fold change /veh RNFT2 (11725882_a_at) / RFU NR4A2 (11747474_a_at) / Fold change /veh NR4A2 (11747474_a_at) / RFU ABCC12 (11746883_a_at) / Fold change /veh ABCC12 (11746883_a_at) / RFU TMEM136 (11760407_x_at) / Fold change /veh TMEM136 (11760407_x_at) / RFU CLDN22 /// WWC2 (11732394_at) / Fold change /veh CLDN22 /// WWC2 (11732394_at) / RFU HLA-DPB1 (11760878_x_at) / Fold change /veh HLA-DPB1 (11760878_x_at) / RFU SPINT1 (11716480_a_at) / Fold change /veh SPINT1 (11716480_a_at) / RFU GAP43 (11754022_s_at) / Fold change /veh GAP43 (11754022_s_at) / RFU A4GNT (11735810_at) / Fold change /veh A4GNT (11735810_at) / RFU PRB3 (11715151_x_at) / Fold change /veh PRB3 (11715151_x_at) / RFU TUBB4B (11761932_at) / Fold change /veh TUBB4B (11761932_at) / RFU CAPN14 (11732068_a_at) / Fold change /veh CAPN14 (11732068_a_at) / RFU TMCC2 (11721928_a_at) / Fold change /veh TMCC2 (11721928_a_at) / RFU IRGQ (11745062_a_at) / Fold change /veh IRGQ (11745062_a_at) / RFU FAM174B (11720279_a_at) / Fold change /veh FAM174B (11720279_a_at) / RFU TMPRSS4 (11748680_a_at) / Fold change /veh TMPRSS4 (11748680_a_at) / RFU FAM212B (11763350_a_at) / Fold change /veh FAM212B (11763350_a_at) / RFU PLEKHG5 (11743358_a_at) / Fold change /veh PLEKHG5 (11743358_a_at) / RFU ZSCAN30 (11745921_a_at) / Fold change /veh ZSCAN30 (11745921_a_at) / RFU CMKLR1 (11741424_a_at) / Fold change /veh CMKLR1 (11741424_a_at) / RFU LOC101060620 /// MAPK8IP1 (11723275_at) / Fold change /veh LOC101060620 /// MAPK8IP1 (11723275_at) / RFU SPTSSB (11747773_x_at) / Fold change /veh SPTSSB (11747773_x_at) / RFU PRSS12 (11739890_at) / Fold change /veh PRSS12 (11739890_at) / RFU BIN1 (11741810_x_at) / Fold change /veh BIN1 (11741810_x_at) / RFU WNT11 (11732464_a_at) / Fold change /veh WNT11 (11732464_a_at) / RFU C10orf10 (11716521_a_at) / Fold change /veh C10orf10 (11716521_a_at) / RFU C5orf56 (11738089_at) / Fold change /veh C5orf56 (11738089_at) / RFU CYB561 (11721691_x_at) / Fold change /veh CYB561 (11721691_x_at) / RFU ANKRD19P (11752326_a_at) / Fold change /veh ANKRD19P (11752326_a_at) / RFU OR2T12 /// OR2T33 /// OR2T8 (11738714_s_at) / Fold change /veh OR2T12 /// OR2T33 /// OR2T8 (11738714_s_at) / RFU VCAN (11748164_a_at) / Fold change /veh VCAN (11748164_a_at) / RFU JSRP1 (11732532_at) / Fold change /veh JSRP1 (11732532_at) / RFU KRTAP10-11 (11738290_x_at) / Fold change /veh KRTAP10-11 (11738290_x_at) / RFU MYO3A (11730013_a_at) / Fold change /veh MYO3A (11730013_a_at) / RFU EBF3 (11725865_a_at) / Fold change /veh EBF3 (11725865_a_at) / RFU CAMK2N1 (11719241_x_at) / Fold change /veh CAMK2N1 (11719241_x_at) / RFU C5orf56 (11738088_a_at) / Fold change /veh C5orf56 (11738088_a_at) / RFU OLFML3 (11715873_a_at) / Fold change /veh OLFML3 (11715873_a_at) / RFU LOC100653217 /// NTM (11731650_a_at) / Fold change /veh LOC100653217 /// NTM (11731650_a_at) / RFU MAPK11 (11762145_a_at) / Fold change /veh MAPK11 (11762145_a_at) / RFU FIZ1 (11724087_x_at) / Fold change /veh FIZ1 (11724087_x_at) / RFU OASL (11726364_x_at) / Fold change /veh OASL (11726364_x_at) / RFU SOX15 (11748057_x_at) / Fold change /veh SOX15 (11748057_x_at) / RFU CD79A (11719716_a_at) / Fold change /veh CD79A (11719716_a_at) / RFU HIST1H1D (11736915_at) / Fold change /veh HIST1H1D (11736915_at) / RFU CASKIN2 (11723855_a_at) / Fold change /veh CASKIN2 (11723855_a_at) / RFU LOC730098 (11760151_x_at) / Fold change /veh LOC730098 (11760151_x_at) / RFU OR4N2 (11742367_at) / Fold change /veh OR4N2 (11742367_at) / RFU PRRT2 (11749266_a_at) / Fold change /veh PRRT2 (11749266_a_at) / RFU SNX32 (11753110_a_at) / Fold change /veh SNX32 (11753110_a_at) / RFU CDHR5 (11726645_a_at) / Fold change /veh CDHR5 (11726645_a_at) / RFU RCAN1 (11760418_a_at) / Fold change /veh RCAN1 (11760418_a_at) / RFU FAM167A (11723789_a_at) / Fold change /veh FAM167A (11723789_a_at) / RFU FAM26E (11764081_at) / Fold change /veh FAM26E (11764081_at) / RFU ISYNA1 (11749810_s_at) / Fold change /veh ISYNA1 (11749810_s_at) / RFU ACY1 (11761880_at) / Fold change /veh ACY1 (11761880_at) / RFU 11764098_at / Fold change /veh 11764098_at / RFU SAMD14 (11745864_x_at) / Fold change /veh SAMD14 (11745864_x_at) / RFU NPB (11741838_a_at) / Fold change /veh NPB (11741838_a_at) / RFU TMPRSS6 (11731388_a_at) / Fold change /veh TMPRSS6 (11731388_a_at) / RFU KRTAP10-2 (11738614_at) / Fold change /veh KRTAP10-2 (11738614_at) / RFU ARHGAP8 /// PRR5-ARHGAP8 (11727945_x_at) / Fold change /veh ARHGAP8 /// PRR5-ARHGAP8 (11727945_x_at) / RFU KRTAP5-7 /// NADSYN1 (11734609_at) / Fold change /veh KRTAP5-7 /// NADSYN1 (11734609_at) / RFU RASL12 (11751679_a_at) / Fold change /veh RASL12 (11751679_a_at) / RFU CDKN2B (11736163_a_at) / Fold change /veh CDKN2B (11736163_a_at) / RFU PRF1 (11729649_at) / Fold change /veh PRF1 (11729649_at) / RFU, ZNF638 /// ZNF638-IT1 / Fold change vs veh, ZNF638 /// ZNF638-IT1 / RFU, PANK3 / Fold change vs veh, PANK3 / RFU, SH3YL1 / Fold change vs veh, SH3YL1 / RFU, ZEB2 / Fold change vs veh, ZEB2 / RFU, NRIP1 / Fold change vs veh, NRIP1 / RFU, PTTG1IP / Fold change vs veh, PTTG1IP / RFU, CAPN2 / Fold change vs veh, CAPN2 / RFU, MED14 / Fold change vs veh, MED14 / RFU, SNORA58 / Fold change vs veh, SNORA58 / RFU, C1orf63 / Fold change vs veh, C1orf63 / RFU, LRRFIP1 / Fold change vs veh, LRRFIP1 / RFU, NDUFAF7 / Fold change vs veh, NDUFAF7 / RFU, SLC12A2 / Fold change vs veh, SLC12A2 / RFU, IBTK / Fold change vs veh, IBTK / RFU, ESF1 / Fold change vs veh, ESF1 / Fold change vs veh, TMEM50B / RFU, TAOK1 / Fold change vs veh, TAOK1 / RFU, ACBD3 / Fold change vs veh, ACBD3 / RFU, TMA16 / Fold change vs veh, TMA16 / RFU, RWDD3 / Fold change vs veh, RWDD3 / RFU, BCAT1 / Fold change vs veh, BCAT1 / RFU, EDEM3 / Fold change vs veh, EDEM3 / RFU, TMEM33 / Fold change vs veh, TMEM33 / RFU, WDR75 / Fold change vs veh, WDR75 / RFU, AHCTF1 / Fold change vs veh, AHCTF1 / RFU, TFRC / Fold change vs veh, TFRC / RFU, ZDHHC17 / Fold change vs veh, ZDHHC17 / RFU, NOM1 / Fold change vs veh, NOM1 / RFU, ARL8B / Fold change vs veh, ARL8B / RFU, ZBTB11 / Fold change vs veh, ZBTB11 / RFU, TAMM41 / Fold change vs veh, TAMM41 / RFU, KIAA1704 /// LOC100996395 / Fold change vs veh, KIAA1704 /// LOC100996395 / RFU, ING1 / Fold change vs veh, ING1 / RFU, TRMT61B / Fold change vs veh, TRMT61B / RFU, FUBP3 / Fold change vs veh, FUBP3 / RFU, TP53 / Fold change vs veh, TP53 / RFU, TNKS2 / Fold change vs veh, TNKS2 / RFU, ZFP14 / Fold change vs veh, ZFP14 / RFU, ACTR2 / Fold change vs veh, ACTR2 / RFU, PPP3R1 / Fold change vs veh, PPP3R1 / RFU, PIK3R1 / Fold change vs veh, PIK3R1 / RFU, HNRNPA1 / Fold change vs veh, HNRNPA1 / RFU, RNF170 / Fold change vs veh, RNF170 / RFU, ZNF28 / Fold change vs veh, ZNF28 / RFU, RNGTT / Fold change vs veh, RNGTT / RFU, OGT / Fold change vs veh, OGT / RFU, BRD1 / Fold change vs veh, BRD1 / RFU, MARS / Fold change vs veh, MARS / RFU, ZNF655 / Fold change vs veh, ZNF655 / RFU, FAHD1 / Fold change vs veh, FAHD1 / RFU, BDP1 / Fold change vs veh, BDP1 / RFU, LRRCC1 / Fold change vs veh, LRRCC1 / RFU, ARID1A / Fold change vs veh, ARID1A / RFU, ZNF146 / Fold change vs veh, ZNF146 / RFU, ZNF330 / Fold change vs veh, ZNF330 / RFU, GPN3 / Fold change vs veh, GPN3 / RFU, C9orf123 / Fold change vs veh, C9orf123 / RFU, N4BP2L2 / Fold change vs veh, N4BP2L2 / RFU, ARFIP1 / Fold change vs veh, ARFIP1 / RFU, FAM179B / Fold change vs veh, FAM179B / RFU, BCL10 / Fold change vs veh, BCL10 / RFU, UHRF1BP1L / Fold change vs veh, UHRF1BP1L / RFU, BET1 / Fold change vs veh, BET1 / RFU, CNOT2 / Fold change vs veh, CNOT2 / RFU, ZNF268 / Fold change vs veh, ZNF268 / Fold change vs veh, ZNF507 / RFU, DGCR2 / Fold change vs veh, DGCR2 / RFU, WDSUB1 / Fold change vs veh, WDSUB1 / Fold change vs veh, HSP90B1 /// MIR3652 / RFU, ADSS / Fold change vs veh, ADSS / RFU, GK / Fold change vs veh, GK / RFU, ZNF148 / Fold change vs veh, ZNF148 / RFU, TAF9 / Fold change vs veh, TAF9 / RFU, SLC1A5 / Fold change vs veh, SLC1A5 / RFU, SLMO2 / Fold change vs veh, SLMO2 / RFU, ABCC4 / Fold change vs veh, ABCC4 / RFU, LOC101060439 /// RAP1B / Fold change vs veh, LOC101060439 /// RAP1B / RFU, RFX7 / Fold change vs veh, RFX7 / RFU, GTPBP10 / Fold change vs veh, GTPBP10 / RFU, CNEP1R1 / Fold change vs veh, CNEP1R1 / RFU, BIVM-ERCC5 /// ERCC5 / Fold change vs veh, BIVM-ERCC5 /// ERCC5 / RFU, ILF3 / Fold change vs veh, ILF3 / RFU 11762660_at / Fold change /veh 11762660_at / RFU VCAN (11757783_s_at) / Fold change /veh VCAN (11757783_s_at) / RFU DDX43 (11728927_at) / Fold change /veh DDX43 (11728927_at) / RFU KRT8 (11758188_x_at) / Fold change /veh KRT8 (11758188_x_at) / RFU NKD1 (11759106_at) / Fold change /veh NKD1 (11759106_at) / RFU SRD5A1 (11742802_a_at) / Fold change /veh SRD5A1 (11742802_a_at) / RFU TPSAB1 /// TPSB2 (11721975_s_at) / Fold change /veh TPSAB1 /// TPSB2 (11721975_s_at) / RFU GSTM3 (11746129_a_at) / Fold change /veh GSTM3 (11746129_a_at) / RFU IL23R (11737362_x_at) / Fold change /veh IL23R (11737362_x_at) / RFU TMEM51 (11727254_a_at) / Fold change /veh TMEM51 (11727254_a_at) / RFU PIWIL2 (11732686_x_at) / Fold change /veh PIWIL2 (11732686_x_at) / RFU ORM1 (11744905_x_at) / Fold change /veh ORM1 (11744905_x_at) / RFU CCDC152 (11743942_at) / Fold change /veh CCDC152 (11743942_at) / RFU ECM1 (11717891_a_at) / Fold change /veh ECM1 (11717891_a_at) / RFU IL23R (11748794_a_at) / Fold change /veh IL23R (11748794_a_at) / RFU TNFAIP8L3 (11732012_x_at) / Fold change /veh TNFAIP8L3 (11732012_x_at) / RFU MBOAT4 (11741988_at) / Fold change /veh MBOAT4 (11741988_at) / RFU 11764193_at / Fold change /veh 11764193_at / RFU TMEM53 (11763286_at) / Fold change /veh TMEM53 (11763286_at) / RFU MAGEB2 (11727129_at) / Fold change /veh MAGEB2 (11727129_at) / RFU TMEM200A (11744735_a_at) / Fold change /veh TMEM200A (11744735_a_at) / RFU CCDC152 (11751479_a_at) / Fold change /veh CCDC152 (11751479_a_at) / RFU FAM211A (11726209_a_at) / Fold change /veh FAM211A (11726209_a_at) / RFU RGS16 (11746705_a_at) / Fold change /veh RGS16 (11746705_a_at) / RFU VCAN (11755009_s_at) / Fold change /veh VCAN (11755009_s_at) / RFU RHOB (11743442_s_at) / Fold change /veh RHOB (11743442_s_at) / RFU RGS16 (11720943_a_at) / Fold change /veh RGS16 (11720943_a_at) / RFU RGS16 (11720944_at) / Fold change /veh RGS16 (11720944_at) / RFU, VPS4B / Fold change vs veh, VPS4B / RFU, CREB1 / Fold change vs veh, CREB1 / RFU, DNAJC13 / Fold change vs veh, DNAJC13 / RFU, GNAQ / Fold change vs veh, GNAQ / RFU, CDK5R1 / Fold change vs veh, CDK5R1 / RFU, ZRANB3 / Fold change vs veh, ZRANB3 / RFU, CUL4A / Fold change vs veh, CUL4A / RFU, CCNY / Fold change vs veh, CCNY / RFU, UFL1 / Fold change vs veh, UFL1 / RFU, COG3 / Fold change vs veh, COG3 / RFU, DIAPH2 / Fold change vs veh, DIAPH2 / RFU, SKA2 / Fold change vs veh, SKA2 / RFU, AFF3 / Fold change vs veh, AFF3 / RFU, LMF1 / Fold change vs veh, LMF1 / RFU, IPO11 / Fold change vs veh, IPO11 / RFU, DFFB / Fold change vs veh, DFFB / RFU, FOXP1 / Fold change vs veh, FOXP1 / RFU, CARD8 / Fold change vs veh, CARD8 / RFU, STRN3 / Fold change vs veh, STRN3 / RFU, ADK / Fold change vs veh, ADK / RFU, RASSF2 / Fold change vs veh, RASSF2 / RFU, WIPF1 / Fold change vs veh, WIPF1 / RFU, LARP1B / Fold change vs veh, LARP1B / RFU, RASA1 / Fold change vs veh, RASA1 / RFU, RB1 / Fold change vs veh, RB1 / RFU, PPFIA1 / Fold change vs veh, PPFIA1 / RFU, MAT2A / Fold change vs veh, MAT2A / RFU, CCT5 / Fold change vs veh, CCT5 / RFU, WDR92 / Fold change vs veh, WDR92 / RFU, CUX1 / Fold change vs veh, CUX1 / RFU, TTC7A / Fold change vs veh, TTC7A / RFU, TMEM135 / Fold change vs veh, TMEM135 / RFU, DEPTOR / Fold change vs veh, DEPTOR / RFU, CPM / Fold change vs veh, CPM / RFU, DNAJB6 / Fold change vs veh, DNAJB6 / RFU, CACNA2D3 / Fold change vs veh, CACNA2D3 / RFU, DTX4 / Fold change vs veh, DTX4 / RFU, TFCP2 / Fold change vs veh, TFCP2 / RFU, GMCL1 /// GMCL1P1 / Fold change vs veh, GMCL1 /// GMCL1P1 / RFU, AEBP2 / Fold change vs veh, AEBP2 / RFU, SNHG1 /// SNORD22 /// SNORD25 /// SNORD26 /// SNORD27 /// SNORD28 /// SNORD29 /// SNORD31 / Fold change vs veh, SNHG1 /// SNORD22 /// SNORD25 /// SNORD26 /// SNORD27 /// SNORD28 /// SNORD29 /// SNORD31 / Fold change (Aza/veh), C12orf56 (ProbeSet 11735607_a_at) / Fold change (ACY-1035/veh), C12orf56 (ProbeSet 11735607_a_at) / Fold change (Aza/veh), FGFR1OP (ProbeSet 11751329_s_at) / Fold change (ACY-1035/veh), FGFR1OP (ProbeSet 11751329_s_at) / Fold change (Aza/veh), VPS36 (ProbeSet 11739960_a_at) / Fold change (ACY-1035/veh), VPS36 (ProbeSet 11739960_a_at) / RFU SYPL1 (11715823_x_at) / Fold change /veh SYPL1 (11715823_x_at) / RFU IGFBP7 (11715501_s_at) / Fold change /veh IGFBP7 (11715501_s_at) / RFU REEP3 (11722064_at) / Fold change /veh REEP3 (11722064_at) / RFU IGLL1 (11728026_x_at) / Fold change /veh IGLL1 (11728026_x_at): dose or concentration left out as unconfirmed. The class given is cell-based, human.

Structures are written as SMILES.

As for `Nc1ccc(-c2cccs2)cc1NC(=O)c1ccc2c(c1)cc(C1CC1)n2CCN1CCOCC1` [ACY-1035], the “RFU, NRIP1” value is 473.81 RFU.
